Assays:
Assay type in all cases: cell-based
A549 cells = experiment: Cell cytotoxicity assay, A549 cells; conditions: Homo sapiens, 72 hours, percent cytotoxicity against DMSO control; for cytotoxicity at 1 µM: 1 μM compound, read-out: Cell toxicity A549 cells 1 μM; for cytotoxicity at 10 µM: 10 μM compound, read-out: Cell toxicity A549 cells 10 μM
From the text: (§1) The following human derived non-small cell lung cancer cell lines were used to test the efficiency of the compounds to cause cell death and assess the anti-cancer properties of said compounds: 1. A549 cells: adenocarcinomic human alveolar basal epithelial cells; these cells are used as models for the study of lung cancer and the development of drug therapies against it • 2. NCI-H-460 cells are also human lung cancer cells, and • 3. NCI-H-522 cells are also human lung cancer cells.
(§2) 500 cells/well/30 μL were seeded in a 384 well cell culture plate. Incubated over night at 37° C., 5% CO2 in cell culture incubator. 10 μL of 4× compound was added to the plates, and incubated for 72 hours at 37° C., 5% CO2 in cell culture incubator. Assay DMSO control were included for 0% cytotoxicity control. Assay was terminated by addition of 10 μL of the reagent CTG 2.0 detection reagent #G9242. Plates were incubated for 20 minute incubation at room temperature with shaking Plate were read in Envision. Ultrasensitive luminescence and data was analyzed and percent cytotoxicity of compounds was determined against DMSO control.
(§3) All the compounds, A1-A116, were tested for cell toxicity using said non-small cell lung cancer cell lines using the above described method.

NCI-H-460 cells = experiment: Cell cytotoxicity assay, NCI-H-460 cells; conditions: Homo sapiens, NCI-H460, 72 hours, percent cytotoxicity against DMSO control; for cytotoxicity at 1 µM: 1 μM compound, read-out: Cell toxicity NCI-H-460 cells 1 μM; for cytotoxicity at 10 µM: 10 μM compound, read-out: Cell toxicity NCI-H-460 cells 10 μM
From the text: as §1, §2, §3

NCI-H-522 cells = experiment: Cell cytotoxicity assay, NCI-H-522 cells; conditions: Homo sapiens, NCI-H522, 72 hours, percent cytotoxicity against DMSO control; for cytotoxicity at 1 µM: 1 μM compound, read-out: Cell toxicity NCI-H-522 cells 1 μM; for cytotoxicity at 10 µM: 10 μM compound, read-out: Cell toxicity NCI-H-522 cells 10 μM
From the text: as §1, §2, §3

[1] = tested on: Non-small cell lung cancer cell lines; experiment: Cell toxicity assay, overall statement; conditions: summary in words of Table 6
From the text: as §1, §2, §3
These selected derivatives of Formula A were further tested to confirm their efficiency as anti-cancer compounds.

| Structure (SMILES) | cytotoxicity at 1 µM (A549 cells) | cytotoxicity at 10 µM (A549 cells) | cytotoxicity at 1 µM (NCI-H-460 cells) | cytotoxicity at 10 µM (NCI-H-460 cells) | cytotoxicity at 1 µM (NCI-H-522 cells) | cytotoxicity at 10 µM (NCI-H-522 cells) | activity against Non-small cell lung cancer (cell toxicity) [1] |
| --- | --- | --- | --- | --- | --- | --- | --- |
| COc1cc(Nc2nc(C)cc(N3CCN(c4ccnc5cc(Cl)ccc45)CC3)n2)cc(C(F)(F)F)c1 [Compound A2, 4-(4-(7-chloroquinolin-4-yl)piperazin-1-yl)-N-(3-methoxy-5-(trifluoromethyl)phenyl)-6-methylpyrimidin-2-amine] | 9% | 1% | -8% | -3% | 4% | 14% | active |
| COc1cccc(Nc2nc(C)cc(N3CCN(c4ccnc5cc(Cl)ccc45)CC3)n2)c1 [Compound A4, 4-(4-(7-chloroquinolin-4-yl)piperazin-1-yl)-N-(3-methoxyphenyl)-6-methylpyrimidin-2-amine] | 47% | 95% | -4% | 71% | 14% | 57% | active |
| COc1cc(F)cc(Nc2nc(C)cc(N3CCN(c4ccnc5cc(Cl)ccc45)CC3)n2)c1 [Compound A5, 4-(4-(7-chloroquinolin-4-yl)piperazin-1-yl)-N-(3-fluoro-5-methoxyphenyl)-6-methylpyrimidin-2-amine] | 24% | 5% | -8% | 7% | 6% | 22% | active |
| COc1cc(Nc2nc(N3CCN(c4ccnc5cc(Cl)ccc45)CC3)cc(C(F)(F)F)n2)cc(C(F)(F)F)c1 [Compound A6, 4-(4-(7-chloroquinolin-4-yl)piperazin-1-yl)-N-(3-methoxy-5-(trifluoromethyl)phenyl)-6-(trifluoromethyl)pyrimidin-2-amine] | 15% | 4% | -7% | -1% | 7% | 21% | active |
| COc1cccc(Nc2nc(N3CCN(c4ccnc5cc(Cl)ccc45)CC3)cc(C(F)(F)F)n2)c1 [Compound A8, 4-(4-(7-chloroquinolin-4-yl)piperazin-1-yl)-N-(3-methoxyphenyl)-6-(trifluoromethyl)pyrimidin-2-amine] | 14% | 5% | -9% | -3% | 1% | 7% | active |
| Cc1cc(N2CCN(c3ccnc4cc(Cl)ccc34)CC2)nc(N2CCCC2)n1 [Compound A11, 7-chloro-4-(4-(6-methyl-2-(pyrrolidin-1-yl)pyrimidin-4-yl)piperazin-1-yl)quinoline] | 16% | 10% | -12% | -4% | 2% | 9% | active |
| Cc1cc(N2CCN(c3ccnc4cc(Cl)ccc34)CC2)nc(N2CCCCC2)n1 [Compound A12, 7-chloro-4-(4-(6-methyl-2-(piperidin-1-yl)pyrimidin-4-yl)piperazin-1-yl)quinoline] | 10% | 99% | -9% | 99% | 5% | 99% | active |
| Cc1cc(N2CCN(c3ccnc4cc(Cl)ccc34)CC2)nc(N2CCCCCC2)n1 [Compound A13, 4-(4-(2-(azepan-1-yl)-6-methylpyrimidin-4-yl)piperazin-1-yl)-7-chloroquinoline] | 14% | 88% | -11% | 47% | 3% | 48% | active |
| Cc1cc(N2CCN(c3ccnc4cc(Cl)ccc34)CC2)nc(N2CCOCC2)n1 [Compound A16, 4-(4-(4-(7-chloroquinolin-4-yl)piperazin-1-yl)-6-methylpyrimidin-2-yl)morpholine] | 9% | -17% | -11% | -6% | 8% | 12% | active |
| FC(F)(F)c1cc(N2CCN(c3ccnc4cc(Cl)ccc34)CC2)nc(N2CCCC2)n1 [Compound A19, 7-chloro-4-(4-(2-(pyrrolidin-1-yl)-6-(trifluoromethyl)pyrimidin-4-yl)piperazin-1-yl)quinoline] | 25% | 87% | -8% | 45% | 11% | 48% | active |
| FC(F)(F)c1cc(N2CCN(c3ccnc4cc(Cl)ccc34)CC2)nc(N2CCCCC2)n1 [Compound A20, 7-chloro-4-(4-(2-(piperidin-1-yl)-6-(trifluoromethyl)pyrimidin-4-yl)piperazin-1-yl)quinoline] | 37% | 89% | -10% | 60% | 8% | 43% | active |
| FC(F)(F)c1cc(N2CCN(c3ccnc4cc(Cl)ccc34)CC2)nc(N2CCCCCC2)n1 [Compound A21, 4-(4-(2-(azepan-1-yl)-6-(trifluoromethyl)pyrimidin-4-yl)piperazin-1-yl)-7-chloroquinoline] | 13% | 23% | -15% | -8% | 1% | 9% | active |
| FC(F)(F)c1cc(N2CCN(c3ccnc4cc(Cl)ccc34)CC2)nc(N2CCNCC2)n1 [Compound A22, 7-chloro-4-(4-(2-(piperazin-1-yl)-6-(trifluoromethyl)pyrimidin-4-yl)piperazin-1-yl)quinoline] | 11% | 17% | -14% | -2% | 1% | 11% | active |
| CN1CCN(c2nc(N3CCN(c4ccnc5cc(Cl)ccc45)CC3)cc(C(F)(F)F)n2)CC1 [Compound A23, 7-chloro-4-(4-(2-(4-methylpiperazin-1-yl)-6-(trifluoromethyl)pyrimidin-4-yl)piperazin-1-yl)quinoline] | 12% | 13% | -15% | -2% | 1% | 9% | active |
| FC(F)(F)c1cc(N2CCN(c3ccnc4cc(Cl)ccc34)CC2)nc(N2CCOCC2)n1 [Compound A24, 4-(4-(4-(7-chloroquinolin-4-yl)piperazin-1-yl)-6-(trifluoromethyl)pyrimidin-2-yl)morpholine] | -1% | 22% | -9% | -6% | 0% | 8% | active |

From patent publication US20260070886A1, “QUINOLINE PIPERAZINE DERIVATIVES, PHARMACEUTICAL COMPOSITION AND USES THEREOF” (priority 2022, published 2026)
